Measurements as given in US9593149B2, “Amylin and calcitonin receptor agonist” (Novo Nordisk A/S, priority 2014, dated 2017).
Numbered stars: 1 amine (or outer) side, 2 acyl side, 3 side chain; on linkers, the order of the positions; unused ones are H or OH. Side chains are listed from the residue outwards. Peptide text beside a SMILES is read from it. * marks the point of attachment. C20 diacid = O=C(O)CCCCCCCCCCCCCCCCCCC(=O)*; γGlu = O=C(O)[C@H](CCC(=O)[*:2])N[*:1]

Assays:
[1] = target: T1, human amylin 3(a) receptor (human calcitonin receptor + RAMP-3), BHK570 cells (Homo sapiens, UniProt O60896+P30988); test: Assay (II)b functional CRE-luciferase assay without albumin, human amylin receptor; format: cell-based; conditions: Tested without HSA; read-out: hAmylin-R funct. EC50
T1 construct: host or cells: BHK570
T1 sequence (O60896 24-148): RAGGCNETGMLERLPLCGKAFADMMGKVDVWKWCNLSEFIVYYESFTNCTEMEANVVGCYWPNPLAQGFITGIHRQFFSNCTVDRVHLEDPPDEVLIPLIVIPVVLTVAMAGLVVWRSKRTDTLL
T1 sequence (P30988 25-474): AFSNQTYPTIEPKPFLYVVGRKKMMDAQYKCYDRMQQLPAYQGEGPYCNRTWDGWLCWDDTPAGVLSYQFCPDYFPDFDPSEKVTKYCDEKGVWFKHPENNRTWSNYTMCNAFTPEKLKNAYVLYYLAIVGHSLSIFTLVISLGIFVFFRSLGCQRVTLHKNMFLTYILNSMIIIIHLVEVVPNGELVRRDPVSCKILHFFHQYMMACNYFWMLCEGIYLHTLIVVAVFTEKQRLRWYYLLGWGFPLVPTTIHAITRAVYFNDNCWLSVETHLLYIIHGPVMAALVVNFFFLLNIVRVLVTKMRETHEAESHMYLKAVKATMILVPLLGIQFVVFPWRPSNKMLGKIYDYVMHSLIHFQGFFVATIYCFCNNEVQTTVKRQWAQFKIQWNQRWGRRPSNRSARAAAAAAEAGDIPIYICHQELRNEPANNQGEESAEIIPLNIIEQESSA
Procedure, shortened: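 BHK570 cells stably expressing human calcitonin receptor with CRE-luciferase reporter, plus RAMP-3 for the amylin 3(a) line. Cells stimulated 3 hours at 37 °C in albumin-free assay medium (0.1% ovalbumin, 10 mM Hepes pH 7.4); cAMP-driven luciferase read by luminescence.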

[2] = target: T1, human amylin 3(a) receptor (human calcitonin receptor + RAMP-3), BHK570 cells; test: Assay (II)a functional CRE-luciferase assay with albumin, human amylin receptor; format: cell-based; conditions: Tested with HSA; read-out: hAmylin-R funct. EC50
Procedure, shortened: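 BHK570 cells stably carry a CRE-luciferase reporter and the calcitonin receptor; co-transfected RAMP-3 gives the amylin 3(a) receptor line. Cells were treated for 3 h at 37 °C in DMEM with 10% FBS and 10 mM Hepes, pH 7.4. cAMP-driven luciferase was read by LucLite luminescence after 30 min at RT.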

Row | EC50 [1] | EC50 [2] | Compound
1 | 0.02 nM | – | CC(C)C[C@H](NC(=O)[C@H](C)NC(=O)[C@H](C)NC(=O)[C@@H](NC(=O)[C@H](CO)NC(=O)[C@H](CC(C)C)NC(=O)[C@H](CCC(=O)O)NC(=O)[C@H](CO)NC(=O)[C@H](C)NC(=O)[C@H](C)NC(=O)CC[C@H](NC(=O)CCCCCCCCCCCCCCCCCCC(=O)O)C(=O)O)[C@@H](C)O)C(=O)NCC(=O)N[C@@H](CCCNC(=N)N)C(=O)N[C@@H](CC(C)C)C(=O)N[C@@H](CO)C(=O)N[C@@H](C)C(=O)N[C@@H](CCC(=O)O)C(=O)N[C@@H](CC(C)C)C(=O)N[C@@H](Cc1c[nH]cn1)C(=O)N[C@@H](CCC(=O)O)C(=O)N[C@@H](CC(C)C)C(=O)N[C@@H](C)C(=O)N[C@H](C(=O)N[C@@H](Cc1ccc(O)cc1)C(=O)N1CCC[C@H]1C(=O)N[C@@H](CCCNC(=N)N)C(=O)N[C@H](C(=O)N[C@@H](CCC(=O)O)C(=O)N[C@H](C(=O)NCC(=O)N[C@@H](CO)C(=O)NCC(=O)N[C@@H](CO)C(=O)N1CCC[C@H]1C(N)=O)[C@@H](C)O)[C@@H](C)O)[C@@H](C)O [compound 57, [N-terminal(C20 diacid-gGlu), 1A, 23Y, 30S, 31G]mimylin] ({C20 diacid-γGlu}-AASELSTAALGRLSAELHELATYPRTETGSGSP-NH2)
2 | – | 0.142 nM | CC(C)C[C@H](NC(=O)[C@H](CCCNC(=N)N)NC(=O)CNC(=O)[C@H](CC(C)C)NC(=O)[C@@H](NC(=O)[C@H](C)NC(=O)[C@@H](NC(=O)[C@H](CO)NC(=O)[C@H](CC(C)C)NC(=O)[C@H](CCC(=O)O)NC(=O)[C@H](CO)NC(=O)[C@H](C)NC(=O)CC[C@H](NC(=O)CCCCCCCCCCCCCCCCCCC(=O)O)C(=O)O)[C@@H](C)O)C(C)C)C(=O)N[C@@H](CO)C(=O)N[C@@H](CCC(N)=O)C(=O)N[C@@H](CCC(=O)O)C(=O)N[C@@H](CC(C)C)C(=O)N[C@@H](Cc1c[nH]cn1)C(=O)N[C@@H](CCC(=O)O)C(=O)N[C@@H](CC(C)C)C(=O)N[C@@H](CCC(N)=O)C(=O)N[C@H](C(=O)N[C@@H](Cc1ccc(O)cc1)C(=O)N1CCC[C@H]1C(=O)N[C@@H](CCCNC(=N)N)C(=O)N[C@H](C(=O)N[C@@H](CCC(=O)O)C(=O)N[C@H](C(=O)NCC(=O)N[C@@H](CO)C(=O)NCC(=O)N[C@H](C(=O)N[C@@H](Cc1ccc(O)cc1)C(N)=O)[C@@H](C)O)[C@@H](C)O)[C@@H](C)O)[C@@H](C)O [compound 114, [N-terminal(C20 diacid-gGlu), des1, 9V, 15Q, 21Q, 23Y, 30S, 31G, 32T, 33Y]mimylin]
3 | 0.036 nM | 0.072 nM | CC(=O)N[C@@H](C)C(=O)N[C@@H](CO)C(=O)N[C@@H](CCCCNC(=O)CC[C@H](NC(=O)CCCCCCCCCCCCCCCCCCC(=O)O)C(=O)O)C(=O)N[C@@H](CC(C)C)C(=O)N[C@@H](CO)C(=O)N[C@H](C(=O)N[C@@H](C)C(=O)N[C@@H](C)C(=O)N[C@@H](CC(C)C)C(=O)NCC(=O)N[C@@H](CCCNC(=N)N)C(=O)N[C@@H](CC(C)C)C(=O)N[C@@H](CO)C(=O)N[C@@H](C)C(=O)N[C@@H](CCC(=O)O)C(=O)N[C@@H](CC(C)C)C(=O)N[C@@H](Cc1c[nH]cn1)C(=O)N[C@@H](CCC(=O)O)C(=O)N[C@@H](CC(C)C)C(=O)N[C@@H](C)C(=O)N[C@H](C(=O)N[C@@H](CC(C)C)C(=O)N1CCC[C@H]1C(=O)N[C@@H](CCCNC(=N)N)C(=O)N[C@H](C(=O)N[C@@H](CCC(=O)O)C(=O)N[C@H](C(=O)NCC(=O)N[C@@H](CO)C(=O)NCC(=O)N[C@@H](CO)C(=O)N1CCC[C@H]1C(N)=O)[C@@H](C)O)[C@@H](C)O)[C@@H](C)O)[C@@H](C)O [compound 68, [N-terminal(acetyl), des1, 4K(C20 diacid-gGlu), 30S, 31G]mimylin] (Ac-ASK([γGlu-C20 diacid])LSTAALGRLSAELHELATLPRTETGSGSP-NH2)
